Laboratory results: patent US20250222009A1, “DINUCLEAR GOLD(I) COMPLEXES FOR TREATING CANCER” (KING FAHD UNIVERSITY OF PETROLEUM AND MINERALS, priority 2024, published 2025)

Key:
[1] = system: A549 cells; test: Mitochondrial ROS generation (MitoSOX Red); format: cell-based, human; conditions: A549, 48 h
Description: 2.0×10^5 A549 cells were seeded in 6-well plates in a complete medium and treated with the complex 3. Assay results were detected by flow cytometry on a BD FACSCanto II flow cytometer. Data were analyzed using BD FACSDiva v.8.0.1 software (BD Biosciences) unless otherwise indicated. Tumor cells were treated for 72 h with complex 3, then stained for 15 minutes with FITC Annexin-V (Thermo Fisher Scientific) and 7AAD (BD Pharmingen, Milan, Italy). Activated caspase-3,7 was detected using the CaspaTag Caspase-3,7 assay (Merck Millipore) after an incubation of 24 h with complex 3. For B-cell lymphoma/leukemia-2 protein (Bcl-2) and Bcl-2 associated x protein (Bax) analysis, cells were treated for 72 h with C3, then fixed and permeabilized (FIX & PERM Cell Fixation & Cell Permeabilization Kit, Life Technologies). […] The distribution of cells in different cell cycle phases was quantified using ModFit LT 4.0 software (Verity Software House, Topsham, ME, USA) (See: Sulaiman, A. A. A.; Casagrande, N.; Borghese, C.; Corona, G.; Isab, A. A.; Ahmad, S.; Aldinucci, D.; Altaf M. Design, Synthesis, and Preclinical Activity in Ovarian Cancer Models of New Phosphanegold(I)—N-Heterocyclic Carbene Complexes. J Med Chem 2022, 65, 14424-14440, which is incorporated herein by reference in its entirety). […]

[2] = system: A549-MCTSs; test: 3D-A549-MCTS viability (PrestoBlue); format: cell-based, human; conditions: 72 h, PrestoBlue, poly-HEMA coated wells
Description: To obtain multiple spheroids, 10.0×10^4 A549 cells were seeded in non-adherent conditions on poly-HEMA coated 96 wells (final volume, 200 μL) for four days. After drug treatment (72 h), the cell viability was determined using PrestoBlue Cell Viability Reagent (Thermo Fisher Scientific, Frederick, MD, USA) (See: Casagrande, N.; Celegato, M.; Borghese, C.; Mongiat, M.; Colombatti, A.; Aldinucci, D. Preclinical Activity of the Liposomal Cisplatin Lipoplatin in Ovarian Cancer. Clin Cancer Res 2014, 20, 5496-5506, which is incorporated herein by reference in its entirety).
3D-MCTSs are a model for in vitro drug testing (See: Zanoni, M.; Piccinini, F.; Arienti, C.; Zamagni, A.; Santi, S.; Polico, R.; Bevilacqua, A.; Tesei, A. 3D Tumor Spheroid Models for in Vitro Therapeutic Screening: A Systematic Approach to Enhance the Biological Relevance of Data Obtained. Sci Rep 2016, 6, 19103, which is incorporated herein by reference in its entirety) and to test drug tissue penetration. Thus, the effects of complex 3 in A549-MCTSs were determined by cultivating tumor cells in non-adherent conditions on poly-HEMA coated wells. […] Representative micro-photographs of A549-MCTSs treated with complex 3 (0.3-5 μM) and with cisplatin (15-250 μM) are shown in FIG. 9C.

In the case of `CC(C)c1cccc(C(C)C)c1-n1ccn(-c2c(C(C)C)cccc2C(C)C)[c]1=[Au-][P+](CCNCC[P+]([Au-]=[c]1n(-c2c(C(C)C)cccc2C(C)C)ccn1-c1c(C(C)C)cccc1C(C)C)(C1CCCCC1)C1CCCCC1)(C1CCCCC1)C1CCCCC1` [Complex 3, [(Au(IPr))2(C28H24P2)](PF6)2], the “mitochondrial reactive oxygen species (mit-ROS)” value [1] is reported as “increased” and the IC50 [2] is reported as 950 nM.
